Experimental data published in patent US11253497B2, “Use of derivatives of polyunsaturated fatty acids as medicaments” (Lipopharma Therapeutics, S.L., priority 2009, dated 2022).

Assays:
[1] = test system: Spontaneously Hypertensive Rats (SHR); test: Blood pressure of SHR rats (cuff-tail method); format: in vivo, rat; settings: 200 mg/kg day p.o., 30 days, before treatment 214 mmHg
How it was run: (§1)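 SHR rats dosed orally at 200 mg/kg day for 30 days against water vehicle. At study end, blood pressure taken non-invasively by tail cuff and apoA-I assessed as gene expression by RT-PCR.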

[2] = Serum cholesterol, triglycerides and glucose in SHR rats (colorimetric); format: in vivo, rat; settings: 200 mg/kg daily p.o., 28 days, untreated rats 100%
Experimental: In a separate experimental series, SHR rats were treated with various compounds of the present invention (200 mg/kg daily, 28 days, p.o.) and the levels of cholesterol, triglycerides and glucose in serum were measured by colorimetric methods. It was observed that these compounds induce significant (and in many cases marked) reductions in the levels of these metabolites (Table 16).
Values are expressed as percent, and in untreated (control) rats values were always considered as 100%.

TNF-α = test: Production of TNF-α in serum of LPS-injected C57BL6/J mice; format: in vivo; settings: LPS 20 μg i.p. (100%), 200 mg/kg p.o.
Description: (§2) Cyclooxygenase (COX) is an enzyme that can bind to membranes, taking certain lipids from there and catalyze its conversion into molecules that can have inflammatory activity. The binding of this enzyme to membrane lipids is due in part to the membrane lipid structure. The increased activity of COX 1 and 2 isoforms has been associated with the etiopathology of a number of inflammatory diseases by […] arachidonic acid metabolism to produce pro-inflammatory lipid mediators. The D-PUFA compounds of the present invention produced a series of cellular signals that alter the metabolism of arachidonic acid and, as a result, they inhibit the activity and expression of COX in monocytes in culture (Table 14 and FIG. 5A). […] For this purpose, C57BL6/J mice were treated with the various derivatives (200 mg/kg, p.o.,) after inducing an inflammatory reaction in them by intraperitoneal injection of 20 μg of bacterial lipopolysaccharide (LPS).

[3] = test system: brain cancer cell (glioma) U118; test: Brain cancer (glioma) U118 cell growth; format: cell-based; settings: 72 hours of incubation
How it was run: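 Human cells in RPMI 1640 with 10% FBS at 37 °C, 5% CO2, exposed to D-PUFAs or PUFAs, then counted. glioma U118 cells run under the same conditions; values are means of three independent experiments.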

lung cancer cells A549 = test: Growth of lung cancer cells A549 (IC50); format: cell-based, human; settings: 72 hours of incubation
How it was run: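 Human A549 lung cancer cells in RPMI 1640 with 10% FBS at 37 °C, 5% CO2, exposed to D-PUFAs or PUFAs, then counted. values are means of three independent experiments.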

Jurkat cells = test: Human leukaemia (Jurkat cells); format: cell-based; settings: 72 hours
Experimental: Overall, it may be seen that the series of compounds A and B are the best, so the effectiveness of these series against the development of leukaemia and liver cancer (Tables 9 and 10) was tested.

COX-2 = test: Expression of COX-2 in LPS-stimulated monocytes in culture; format: cell-based, human; settings: positive control with LPS 100%
Description: FIG. 5A also presents a drawing showing the COX-2/COX-1 relationship as % of control (Y axis) for the following compounds (X-axis): OOA (2-hydroxy-oleic acid), OLA (182A1), OALA (183A1), OGLA (183A2), OARA (204A1), OEPA (205A1), ODHA (226A1). […] The reduction of this factor is directly related to the anti-inflammatory medication. The compounds are the same as in the left pane.
as §2
Inhibition of COX-2 expression in monocytes. Percentages of inhibition (compared to the positive control in the presence of LPS, 100%) of COX-2 protein levels (expression) by the various fatty acid derivatives.

[4] = test system: apolipoprotein AI (apoA-I); test: Levels of apoA-I in SHR rats (RT-PCR); format: in vivo, rat; settings: 200 mg/kg day p.o., 30 days, before treatment 100%
How it was run: as §1

P19 cells = test: NMDA-induced neuronal death in P19 cells; format: cell-based; settings: NMDA alone 100% death, control without NMDA 0%; negative values = proliferation
α-synuclein = test: Expression of α-synuclein in neuronal cultures (cells P19); format: cell-based; settings: untreated cells 100%
[5] = Lamellar-to-hexagonal (HII) transition temperature in DEPE model membranes by Differential Scanning Calorimetry; format: physicochemical; settings: DEPE membranes, DEPE:D-PUFA 10:1 (mol:mol)
Experimental: The transition temperature was determined by Differential Scanning Calorimetry. The proportion DEPE:D-PUFA was 10:1 (mol:mol) in all cases. Lamellar-to-hexagonal transition is an important parameter that reflects relevant signalling properties of cell membranes. […] When this occurs, certain peripheral membrane proteins (such as G proteins, protein kinase C or Ras protein) can more easily bind to the membrane, while others have a poor interaction (e.g., the Gα-protein), so changes in the HII transition temperature are important in regulating cellular functions related to health and human therapy (Escriba et al., 1995, Vogler et al., 2004; Escriba, 2006).
Control values correspond to model membranes in the absence of fatty acids. The reduction in HII transition temperature obtained by using the D-PUFA of the invention indicates an increased induction of membrane discontinuities, generating anchoring sites in the membrane for peripheral proteins and leads to better regulation of cell signalling and, therefore, greater effectiveness in the control of certain diseases.

[6] = test system: breast cancer cells MDA-MB-231; test: Growth of breast cancer cells MDA-MB-231; format: cell-based; settings: 72 hours of incubation
How it was run: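 Human cancer cells in RPMI 1640 with 10% FBS at 37 °C, 5% CO2, exposed to D-PUFAs or PUFAs, then counted. Breast MDA-MB-231 cells run under the same conditions; values are means of three independent experiments.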

| Structure (SMILES) | Blood pressure [1] [mm Hg] | Cholesterol in serum (top number) [2] [%] | Glucose in serum (bottom number) [2] [%] | Triglycerides in serum (central number) [2] [%] | Production of TNF-α in serum (TNF-α) [%] | IC50 [3] [µM] | IC50 (lung cancer cells A549) [µM] | IC50 (Jurkat cells) [µM] | COX-2 protein levels (expression), percentages of inhibition compared to positive control (COX-2) [%] | Levels of apoA-I [4] [%] | Neuronal death (P19 cells) after treatment with NMDA (P19 cells) [%] | Expression of α-synuclein (α-synuclein) [%] | Temperature of lamellar-to-hexagonal transition [5] [°C] | IC50 [6] [µM] |
| --- | --- | --- | --- | --- | --- | --- | --- | --- | --- | --- | --- | --- | --- | --- |
| CCCCCC=CCC=CCC=CCC=CCCC(O)C(=O)[O-].[Na+] (stereo not drawn) [204B1] | 202 | 71 | 89 | 69 | 26 | 396 | 413 | 104 | 28 | 144 | −71 | 36 | 50.2 | 345 |
| CCCCCC=CCC=CCC=CCCCC(O)C(=O)[O-].[Na+] (stereo not drawn) [183B2] | 182 | 77 | 86 | 76 | 78 | 377 | 197 | 184 | 29 | 285 | −66 | 38 | 51 | 156 |
| CCC=CCC=CCC=CCC=CCC=CCCC(C)C(=O)[O-].[Na+] (stereo not drawn) [205L1] | 198 | 79 | 85 | 78 | 76 | 435 | 362 |  | 53 | 376 | −35 | 67 |  | 253 |
| CCCCCC=CCC=CCCCCCCC(C)C(=O)[O-].[Na+] (stereo not drawn) [182L1] | 207 | 89 | 94 | 93 | 85 | 229 | 385 |  | 67 | 131 | −32 | 80 |  | 343 |
| CCCCCC=CCC=CCCCCCCC(O)C(=O)[O-].[Na+] (stereo not drawn) [182B1] | 201 | 89 | 87 | 72 | 79 | 198 | 196 | 377 | 39 | 178 | −62 | 61 | 52.1 | 379 |
| CCCCCC=CCC=CCC=CCC=CCCC(C)C(=O)[O-].[Na+] (stereo not drawn) [204L1] | 197 | 83 | 91 | 82 | 49 | 247 | 326 |  | 47 | 188 | −27 | 69 |  | 332 |
| CCC=CCC=CCC=CCCCCCCC(O)C(=O)OP(=O)(OCC)OCC (stereo not drawn) [183F1] | 203 | 78 | 76 | 71 | 91 | 354 | 347 |  | 46 | 146 | −35 | 61 |  | 323 |
| CCCCCC=CCC=CCC=CCCCC(OC=O)C(=O)OCC (stereo not drawn) [183V2] | 198 | 84 | 88 | 92 | 87 | 402 | 291 |  | 68 | 282 | −18 | 89 |  | 241 |
